Test results from patent US7294485B2, “Rat calcium channel subunits and related probes, cell lines and methods” (Neuromed Pharmaceuticals Ltd., priority 2003, dated 2007).

Columns and labels:
[1] = tested on: α2δ-3 expression in cultured rat atrial myocytes; details: Chu 2003; cited from earlier work
[2] = biological target: α2δ-2 subunit (Homo sapiens, UniProt Q9NY47); details: Marais et al. 2001; cited from earlier work
[3] = biological target: α2δ-3 subunit (Homo sapiens, UniProt Q8IZS8); details: Marais et al. 2001; cited from earlier work
Chain of α2δ-3 subunit (Q8IZS8 29-1091): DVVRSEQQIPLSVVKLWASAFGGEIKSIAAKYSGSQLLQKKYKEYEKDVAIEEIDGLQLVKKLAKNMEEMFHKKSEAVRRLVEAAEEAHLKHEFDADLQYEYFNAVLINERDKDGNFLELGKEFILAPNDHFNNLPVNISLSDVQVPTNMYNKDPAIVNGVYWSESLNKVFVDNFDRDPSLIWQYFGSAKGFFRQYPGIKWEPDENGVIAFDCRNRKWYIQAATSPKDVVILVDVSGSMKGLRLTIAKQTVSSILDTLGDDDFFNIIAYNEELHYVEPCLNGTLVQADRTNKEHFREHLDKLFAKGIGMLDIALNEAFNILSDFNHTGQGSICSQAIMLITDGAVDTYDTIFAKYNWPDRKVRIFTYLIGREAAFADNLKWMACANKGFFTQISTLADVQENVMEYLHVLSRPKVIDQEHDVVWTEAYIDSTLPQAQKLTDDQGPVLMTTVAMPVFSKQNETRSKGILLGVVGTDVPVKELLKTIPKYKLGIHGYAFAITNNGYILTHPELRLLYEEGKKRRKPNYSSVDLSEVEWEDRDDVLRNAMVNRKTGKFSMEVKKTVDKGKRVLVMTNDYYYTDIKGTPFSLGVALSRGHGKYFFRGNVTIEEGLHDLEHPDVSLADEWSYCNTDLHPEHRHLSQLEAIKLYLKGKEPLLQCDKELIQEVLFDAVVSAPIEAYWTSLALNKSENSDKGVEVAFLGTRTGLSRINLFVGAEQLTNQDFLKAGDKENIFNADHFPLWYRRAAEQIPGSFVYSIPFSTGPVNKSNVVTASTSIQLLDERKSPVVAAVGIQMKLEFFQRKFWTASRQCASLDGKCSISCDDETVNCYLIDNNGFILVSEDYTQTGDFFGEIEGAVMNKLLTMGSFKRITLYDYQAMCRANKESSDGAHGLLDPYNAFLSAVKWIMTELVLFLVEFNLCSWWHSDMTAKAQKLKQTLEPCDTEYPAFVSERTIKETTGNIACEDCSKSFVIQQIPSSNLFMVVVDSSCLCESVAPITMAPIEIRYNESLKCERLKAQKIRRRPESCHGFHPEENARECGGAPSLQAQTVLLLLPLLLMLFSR

[4] = tested on: rat α1B+β1b Ca2+ channel (N-type calcium channel); test: Whole-cell patch clamp current density of rat α1B+β1b channels with coexpressed α2δ-2 in transfected HEK 293 cells; format: cell-based
Protocol: Human embryonic kidney cells, HEK 293 (ATCC# CRL 1573) or HEK 293 tsA 201, were grown in standard DMEM medium supplemented with 4 mM glutamine and 10% fetal bovine serum. The rat α2δ-2 construct was transfected into HEK 293 or HEK 293 tsA 201 cells with equimolar concentration of the subunits α1B (N-type calcium channel) and β1b, using lipofectamine (Gibco/Invitrogen) according to the manufacturer's instructions. pEGFP was included in the transfected cDNA at 3-5 times less the molar concentration to detect transfected cells and to determine the efficiency of transfection. Transfected cells were incubated at 37° C., 5% CO2, for 6-24 hours and then placed at 29° C., 5% CO2.
After an incubation period of 24 to 72 hours, the culture medium was removed and replaced with an external recording solution containing (in mM) 5 BaCl, 129 CsCl, 1 MgCl2, 10 HEPES, 10 glucose, pH 7.4 with CsOH. Whole-cell patch clamp recordings were made with an Axopatch 200B amplifier (Axon Instruments, USA). […] Signals were acquired at 2.02 kHz and analyzed offline using pClamp 8.2 (Axon Instruments, USA) and Origin (OriginLab Corporation, USA) software. […]
Mean current density was recorded for 4 cells transfected with rat α1B+β1b only and for 7 cells that were also cotransfected with rat brain α2δ-2 subunit. […]

Chain of α2δ-2 subunit (Q9NY47 19-1150): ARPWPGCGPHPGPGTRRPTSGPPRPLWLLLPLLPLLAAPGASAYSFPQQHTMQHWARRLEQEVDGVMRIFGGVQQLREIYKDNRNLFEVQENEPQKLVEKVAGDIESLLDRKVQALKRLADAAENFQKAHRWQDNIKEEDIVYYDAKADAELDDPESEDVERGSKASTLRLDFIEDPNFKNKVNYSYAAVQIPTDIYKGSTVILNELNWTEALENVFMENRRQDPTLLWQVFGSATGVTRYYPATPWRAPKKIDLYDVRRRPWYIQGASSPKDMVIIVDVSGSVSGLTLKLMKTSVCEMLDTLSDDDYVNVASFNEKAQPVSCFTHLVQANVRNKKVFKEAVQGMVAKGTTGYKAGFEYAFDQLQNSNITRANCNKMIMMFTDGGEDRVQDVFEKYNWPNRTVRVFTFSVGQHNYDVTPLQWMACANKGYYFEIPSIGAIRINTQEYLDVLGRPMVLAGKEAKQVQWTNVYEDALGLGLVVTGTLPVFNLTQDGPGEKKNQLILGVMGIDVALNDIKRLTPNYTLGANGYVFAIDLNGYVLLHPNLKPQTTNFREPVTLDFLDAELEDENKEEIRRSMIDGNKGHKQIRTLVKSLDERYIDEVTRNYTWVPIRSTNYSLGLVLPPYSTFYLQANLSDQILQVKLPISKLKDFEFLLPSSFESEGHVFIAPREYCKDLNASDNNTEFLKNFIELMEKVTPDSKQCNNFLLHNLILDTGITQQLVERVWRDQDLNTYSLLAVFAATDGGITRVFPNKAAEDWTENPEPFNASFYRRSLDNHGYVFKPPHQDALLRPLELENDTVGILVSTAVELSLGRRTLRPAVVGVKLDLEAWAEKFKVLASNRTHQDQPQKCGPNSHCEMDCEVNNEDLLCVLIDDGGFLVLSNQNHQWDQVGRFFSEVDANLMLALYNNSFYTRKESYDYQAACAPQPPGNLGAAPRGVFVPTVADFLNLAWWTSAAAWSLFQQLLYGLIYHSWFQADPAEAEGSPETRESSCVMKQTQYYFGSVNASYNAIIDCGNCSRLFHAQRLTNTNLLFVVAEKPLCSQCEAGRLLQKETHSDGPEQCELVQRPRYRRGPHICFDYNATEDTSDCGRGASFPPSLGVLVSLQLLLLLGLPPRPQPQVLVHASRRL

Molecule: IGF-1: IGF-1, reported to stimulate α2δ-3 expression in cultured rat atrial myocytes
- effect on α2δ-3 expression [1]: stimulates

Molecule: NCC1(CC(=O)O)CCCCC1 [gabapentin]
- binding to α2δ-2 subunit [2]: binds
- binding to α2δ-3 subunit [3]: not

B1: rat brain α2δ-2 subunit: α2δ-2 calcium channel subunit present in rat brain, SEQ. ID. NO:3, 1,150 amino acids, expressed from cDNA (protein, listed as Rattus norvegicus)
chain: MAVPARTCGASWPGPVRTARPWPGRGPRPCPDPRGPASGPARPLLLLLPPLLLLPLLTAPGASAYSFPQQHTMQHWARRLEQEIDGVMRIFGGVQQLREIYKDNRNLFDVQENEPQKLVEKVAGDIESLLDRKVQALKRLADAAENFQKAHRWQDNIKEEDIMYYDAKADAELDDPESEDMERGSKTSALRLDFIEEPNFKNKVNYSYTAVQIPTDIYKGSTVILNELNWTEALENVFIENRRQDPTLLWQVFGSATGVTRYYPATPWRAPKKIDLYDVRRRPWYIQGASSPKDMVIIVDVSGSVSGLTLKLMKTSVCEMLDTLSDDDYVNVASFNEKAQPVSCFTHLVQANVRNKKVFKEAVQGMVAKGTTGYKAGFEYAFDQLQNSNITRANCNKMIMMFTDGGEDRVQDVFEKYNWPNRTVRVFTFSVGQHNYDVTPLQWMACTNKGYYFEIPSIGAIRINTQEYLDVLGRPMVLAGKDAKQVQWTNVYEDALGLGLVVTGTLPVFNLTQDGPGEKKNQLILGVMGIDVALNDIKRLTPNYTLGANGYVFAIDLNGYVLLHPNLKPQTTNFREPVTLDFLDAELEDENKEEIRRSMIDEDKGHKQIRTLVKSLDERYIDEVIRNYTWVPIRSTNYSLGLVLPPYSTYYLQANLSDQILQVKYFEFLLPSSFESEGHVFIAPREYCKDLNASDNNTEFLKNFIELMEKVTPDSKQCNNFLLHNLILDTGITQQLVERVWRDQDLNTYSLLAVFAATDGAVTRVFPNKAAEDWTENPEPFNASFYRRSLDNRGYIFKPPHQDSLLRPLELENDTVGVLVSTAVELSLGRRTLRPAVVGVKLDLEAWAEKFKVLASNRTHQDQPQKQCGPSSHCEMDCEVNNEDLLCVLIDDGGFLVLSNQNHQWDQVGRFFSEVDANLMLALYNNSFYTRKESYDYQAACAPQPPGNLGAAPRGVFVPTIADFLNLAWWTSAAAWSLFQQLLYGLIYHSWFQADPAEAEGSPETRESSCVMKQTQYYFGSVNASYNAIIDCGNCSRLFHAQRLTNTNLLFVVAEKPLCSQCEVGRLLQKETHCPADGPEQCELVQRPRYRRGPHICFDYNATEDTSDCGRGTSFPPSLGVLVSLQLLLLLGLPPRPQPQIHSFAASRRL
- mean current density (Ipeak/cell capacitance) ([4]; rat α1B+β1b coexpressed with rat brain α2δ-2 in HEK 293 cells, test potential +20 mV from holding −80 mV, 7 cells, mean±S.E.M, without α2δ-2: −7.2±2.3): −30.0±4.1 pA/pF
- increase of rat α1B+β1b current density ([4]; with versus without coexpressed α2δ-2, P=0.01): ~4 fold
